Experimental data published in publication PMC9820444, “Design and Synthesis of Acridine-Triazole and Acridine-Thiadiazole Derivatives and Their Inhibitory Effect against Cancer Cells” (International Journal of Molecular Sciences, 2022).
Read-outs that look alike come from different tables or passages of the source. Marks after values point to notes of the source that are not given here.

Columns and labels:
[1] = system: bladder cancer cells (T24); test: MTT antiproliferative assay, T24; type: cell-based, human; settings: read-out: Effect against cell viability (IC50), T24
Experimental: (§1) All newly synthesized acridinyl derivatives (4–6) were screened for their anticancer activities in comparison to the reference compounds, 5-FU and cis-platinum. Compounds 4–6 were tested for their in vitro antitumor activities against HFF, MGC-803, BEL-7404, NCI-H460, and T24 tumor cell lines, and human normal liver cells (LO2), and the results are shown in Table 1. Most of the compounds had strong selective potency against MGC-803 and T24 cancer cells. […] In the T24 cell line assay, many compounds, especially the series of compound 4, had significant activity against T24. This implies that there is a significant increase in potency after the introduction of the aroyl thiourea group. […] To our delight, most 1,2,4-triazolethiones (5) and 1,2,4-thiadiazoles (6) have low toxicity to LO2 compared with the positive control.
(§2) Test samples, including compounds 4–6 and commercial classical anticancer drugs (5-FU and cis-platinum), were screened for their anti-cancer activity against HFF human foreskin fibroblast cells, MGC-803 human gastric cancer cells, BEL-7404 human hepatocellular carcinoma cells, NCI-H460 human large cell carcinoma cells, and T24 human bladder carcinoma cells using the 3-(4,5-dimethylthiazol-2-yl)-2,5-diphenyltetrazoliumbromide (MTT) assay method cited in the literature. The initial concentration of all the test samples was 100 μg/mL, which was serially diluted in complete medium with ten-fold dilutions to give six concentrations per compound. Their cytotoxicity was determined in 96-well flat bottomed microtiter plates. All the test samples were tested in triplicate. The results were expressed as the drug concentration that inhibited cell growth by 50% as compared to the controls (IC50). The IC50 values were calculated from regression lines obtained from the percent cell growth inhibition plotted as a function of the logarithm of the dose.

[2] = system: subintestinal veins (SIVs) in zebrafish embryos; test: Zebrafish angiogenesis assay (subintestinal veins, NBT/BCIP staining); type: in vivo; settings: 1 mg/mL; for area of the meshed pattern vessel and number of vascular branches in the network: zebrafish embryos, compared with blank control group
Source text: Currently, the zebrafish has emerged as a valuable model organism to substitute traditional models for studying angiogenesis inhibitors. The genes of zebrafish show 70–80% similarity to humans, and the vascular structure of zebrafish has high similarity to that of other vertebrates. Therefore, the subintestinal veins (SIVs) in the zebrafish embryos are used as evaluation indicators for anti-angiogenesis inhibitors. In this study, NBT/BCIP vascular staining was used to observe the angiogenesis effect of representative drugs (4h, 4f, 5d, 5h, 6g and 6h) in a zebrafish model. […] Compared with the blank control group, the area of the meshed pattern vessel and the number of vascular branches in the network decreased after the administration of compounds 4h, 5d, 5h and 6h.
The 24 hpf zebrafish embryos were dechorionated with a 1 gL^−1 pronase treatment and maintained in distilled water in 12-well cell culture plates (each well contained 20 embryos). A negative control group containing zebrafish embryos in distilled water and a vehicle treatment group that was treated with 2% dimethyl sulfoxide (DMSO) were prepared. The anti-angiogenic compounds were diluted to 1 mg/mL. After incubating at 28 °C for […], the embryos were immersed in 4% paraformaldehyde and dehydrated by gradient ethanol. Subsequently, the embryos were balanced in NTMT buffer (5 M NaCl + 1 M Tris [pH 9.0–9.5] + 1 M MgCl2+ 10% Tween), and nitrotetrazolium blue chloride (NBT) and p-toluidine salt (BCIP) staining were performed. To evaluate the effect of compounds on the angiogenesis of zebrafish embryos, the growth of embryonic sub-intestinal veins (SIVs) at 72 hpf was observed using an IX71 Olympus microscope (Hamburger, Germany). The length of the SIVs was calculated using the image J 1.8.0 software (Bethesda, MD, USA).

[3] = system: large cell lung cancer cells (NCI-H460); test: MTT antiproliferative assay, NCI-H460; type: cell-based, human; settings: read-out: Effect against cell viability (IC50), NCI-H460
Experimental: as §1, §2

T24 cells [4] = test: Apoptosis by Annexin V-FITC/PI flow cytometry, T24; type: cell-based, human; settings: T24, at IC50 concentration (4h 8.05 μM; 6h 8.93 μM); control 1.18%
Experimental: (§3) The apoptosis ratios of MGC80-3 or T24 cell lines induced by the selected compounds at the concentration of IC50 and 0.5 IC50 were quantitatively determined by flow cytometry. Four quadrant images (Q1, Q2, Q3 and Q4) were observed by flow cytometric analysis. The results of apoptosis ratios (including the early and late apoptosis ratios) after 12 h are presented in Figure 6 (MGC80-3) and Figure 7 (T24). […] After treatment with compound 6h, 5.62% (3.43 μM) and 14.25% (6.85 μM) of the cells were apoptotic. These were higher percentages than the one observed in the control (0.586%). […] The results evidently illustrate that representative compounds 5d and 6h or 4h and 6h could suppress cell proliferation by inducing apoptosis in the early apoptotic period.
(§4) The apoptosis assay and the cell cycle analysis were carried out by cytometry (FACSVerse, BD, Piscataway, NJ, USA) at an excitation wavelength of 488 nm according to the method described in the literature with slight modifications. The cells were seeded at 2 × 10^6/well and washed by cold PBS. The buffer solutions were prepared using 0.1 M pH 7.4 Hepes/NaOH, 1.4 M NaCl, and 25 mM CaCl2.

T24 cells [5] = test: Cell cycle analysis by flow cytometry, T24; type: cell-based, human; settings: T24, 8.05 μM (IC50), 48 h; control 22.89%
Experimental: (§5) Compared to control, both compounds 4h and 5d interfered with the cell cycles of T24 and MGC80-3 cells, respectively.
as §4

[6] = system: human gastric cancer cells-803 (MGC-803); test: MTT antiproliferative assay, MGC-803; type: cell-based; settings: read-out: Effect against cell viability (IC50), MGC-803
Experimental: as §1, §2

zebrafish embryos = system: zebrafish embryos; set-up: mortality rate of zebrafish embryos: dose or concentration left out as unconfirmed; settings: for MAR (malformation rate) / MOR (mortality rate): zebrafish embryos 72 hpf
Experimental: In this experiment, 2% DMSO was used to dissolve the target products, and the abnormal rate (MAR) and mortality rate (MOR) of zebrafish embryos (72 hpf) were used for statistics.
The zebrafish embryos were collected at 6 hpf and randomly divided into naive control (embryos maintained in distilled water), vehicle control (embryos treated with 2% DMSO), and drug groups. Stock solutions of all drugs were prepared in 2% DMSO as a solubilizing agent and diluted to three concentrations (0.5 mg/mL, 1 mg/mL, and 2 mg/mL). Each group had 20 embryos per test concentration. […] Each compound was evaluated in three independent biological experiments.

[7] = system: hepatocellular carcinoma bel-7404 (BEL-7404); test: MTT antiproliferative assay, BEL-7404; type: cell-based, human; settings: read-out: Effect against cell viability (IC50), BEL-7404
Experimental: as §1, §2

[8] = system: human normal liver cells (LO2); test: Cytotoxicity against normal liver cells LO2; type: cell-based; settings: MTT, read-out: Effect against cell viability (IC50), LO2
Experimental: as §1, §2

[9] = system: human foreskin fibroblasts (HFF); test: MTT antiproliferative assay, HFF; type: cell-based; settings: read-out: Effect against cell viability (IC50), HFF
Experimental: as §1, §2

MGC80-3 cells [10] = test: Cell cycle analysis by flow cytometry, MGC80-3; type: cell-based, human; settings: MGC80-3, 5.52 μM (IC50), 48 h; control 8.91%
Experimental: as §5, §4

MGC80-3 cells [11] = test: Apoptosis by Annexin V-FITC/PI flow cytometry, MGC80-3; type: cell-based, human; settings: for apoptosis percentage (early and late): control 0.586%
Experimental: as §3, with “The results of apoptosis ratios (including the early and late apoptosis ratios) after 12 h are presented in Figure 6 (MGC80-3) and Figure 7 (T24).” left out
as §4

COc1ccc(C(=O)NNC(=S)Nc2c3ccccc3nc3ccc(C)cc23)cc1 [4h, 1-2′-methyl acridinyl-3-4’-methoxy benzoyl thiosemicarbazides]
IC50 [1]: 8.05 ± 1.06 µM
area of the meshed pattern vessel and number of vascular branches in the network [2]: decreased
IC50 [3]: 25.4 ± 3.16 µM
apoptosis ratio (T24 cells [4]): 12.377%
S phase population (T24 cells [5]): 30.04%
IC50 ([6]; MTT): 11.2 ± 1.46 µM
MAR (malformation rate) (zebrafish embryos; 1 mg/mL): 35% ^a
MOR (mortality rate) (zebrafish embryos; 1 mg/mL): 15% ^a
MAR (malformation rate) (zebrafish embryos; 1.5 mg/mL): 85% ^a
MOR (mortality rate) (zebrafish embryos; 1.5 mg/mL): 15% ^a
MAR (malformation rate) (zebrafish embryos; 2 mg/mL): 35% ^a
MOR (mortality rate) (zebrafish embryos; 2 mg/mL): 65% ^a
total mortality and malformation rate (zebrafish embryos; zebrafish embryos, 2.0 mg.L^−1): 100%
IC50 [7]: 27.1 ± 2.91 µM
IC50 [8]: 9.01 ± 0.93 µM
IC50 [9]: > 100 µM

COc1ccc2nc3ccccc3c(-n3c(-c4ccc([N+](=O)[O-])cc4)n[nH]c3=S)c2c1 [5d, 4-(2-methoxyacridin-9-yl)-5-(4-nitrophenyl)-2,4-dihydro-3H-1,2,4-triazole-3-thione]
IC50 ([1]; Homo sapiens): 15.9 ± 1.38 µM
reduction in the vessel length (SIVs) compared to the mean vessel length for the controls ([2]; 72 hpf zebrafish embryos): ~50%
area of the meshed pattern vessel and number of vascular branches in the network [2]: decreased
IC50 ([3]; Homo sapiens): 19.4 ± 1.58 µM
G2 phase population (MGC80-3 cells [10]): 13.32%
apoptosis percentage (early and late) (MGC80-3 cells [11]; MGC80-3, 0.5 IC50 (5d 2.76 μM; 6h 3.43 μM)): 6.616%
Q4 (live) cells (MGC80-3 cells [11]; MGC80-3, IC50 (5d 5.52 μM; 6h 6.85 μM), 24 h, control 93.0%): 81.2%
apoptosis percentage (early and late) (MGC80-3 cells [11]; MGC80-3, IC50 (5d 5.52 μM; 6h 6.85 μM)): 17.51%
IC50 ([6]; Homo sapiens, MGC-803, MTT): 5.52 ± 1.04 µM
mortality rate of zebrafish embryos (zebrafish embryos): ~0%
malformation rate of zebrafish embryos (zebrafish embryos; 2.0 mg.L^−1): less than 15%
MAR (malformation rate) (zebrafish embryos; 1 mg/mL): 5% ^b
MOR (mortality rate) (zebrafish embryos; 1 mg/mL): 0%
MAR (malformation rate) (zebrafish embryos; 1.5 mg/mL): 10% ^a
MOR (mortality rate) (zebrafish embryos; 1.5 mg/mL): 0%
MAR (malformation rate) (zebrafish embryos; 2 mg/mL): 10% ^c
MOR (mortality rate) (zebrafish embryos; 2 mg/mL): 0%
IC50 ([7]; Homo sapiens): 25.1 ± 2.89 µM
IC50 ([8]; Homo sapiens): 51.8 ± 3.46 µM
IC50 ([9]; Homo sapiens, Fibroblast): 62.9 ± 1.9 µM
